{
  "source": "patent US20180237362A1",
  "about": "“NOVEL POLYGODIAL ANALOGS FOR THE TREATMENT OF CANCER AND OTHER PROLIFERATIVE DISEASES” (THE BOARD OF REGENTS OF THE UNIVERSITY OF TAXAS SYSTEM, priority 2015, published 2018)",
  "key": {"[1]": {"test_system": "human SKMEL-28 melanoma", "test": "MTT antiproliferative assay, SKMEL-28", "type": "cell-based", "settings": "sextuplicates, read-out: GI50 in vitro values, SKMEL-28", "experimental": "(§1) Human mammary carcinoma MCF-7 (ATCC HTB22) cells were cultured in RPMI supplemented with 10% FBS. The U87 cells (ATCC HTB-14) were cultured in DMEM culture medium, while the A549 cells (DSMZ ACC107) were cultured in RPMI culture medium supplemented with 10% heat-inactivated FBS. The GBM Hs683 (ATCC HTB-138) cells were cultivated in DMEM supplemented with 10% FBS. The human uterine sarcoma MES-SA (ATCC CRL1966) and MES-SA/D×5 cells were cultured in RPMI-1640 medium supplemented with 10% FBS with MES SA/D×5 maintained in the presence of 500 nM Doxorubicin (Sigma). SKMEL-28 cells (ATCC HTB72) and U373 GBM cells (ECACC 08061901) were cultured in RPMI culture medium supplemented with 10% heat-inactivated FBS. Cell culture media were supplemented with 4 mM glutamine (Lonza code BE17-605E), 100 μg/mL gentamicin (Lonza code 17-5182), and penicillin-streptomycin (200 units/ml and 200 μg/ml) (Lonza code 17-602E). The MDA-MB-231 (ATCC HTB-26) epithelial mammary adenocarcinoma cells were cultured in Eagle's minimum essential medium (EMEM; Invitrogen) containing 5% fetal calf serum (FCS, Cambrex), 2 mM L-glutamine (Invitrogen), 0.06% HEPES (Invitrogen) and penicillin (50 IU/ml)/streptomycin (50 µg/ml; Invitrogen) at 37° C. in a humidified atmosphere of 5% CO2 in air. Transformed mouse NPCs were cultured in suspension under neurosphere conditions at 37° C. in a humidified atmosphere of […] and 5% CO2 in DMEM F12 (Invitrogen 11320-074) supplemented with 1×B27 supplement (Invitrogen 17504-044), 5% penicillin-streptomycin (Biochrom 10378-017), 10 ng/ml EGF (R&D systems 236-EG), 10 ng/ml FGF (PeproTech 100-18B).\n(§2) Antiproliferative properties of the synthesized compounds were evaluated by the MTT assay. All compounds were dissolved in DMSO at a concentration of either 100 μM or 50 μM prior to cell treatment. The cells were trypsinized and seeded at various cell concentrations depending on the cell type. The cells were grown for 24 h to 72 h, treated with compounds at concentrations ranging from 0.001 to 100 μM and incubated for 48 or 72 h in 100 or 200 μL media depending on the cell line used. The number of experiments and replicates varied depending on the cell line. Cells treated with 0.1% DMSO were used as a negative control; 1 μM PAO was used as a positive control.\n(§3) The synthesized C12-Wittig derivatives were evaluated for antiproliferative activities in a panel of cancer cell lines that included apoptosis-resistant human U373 glioblastoma (GBM) (Lefranc et al., 2013), human A549 non-small cell lung cancer (NSCLC) and human SKMEL-28 melanoma (Mathieu et al., 2009) as well as apoptosis-sensitive human Hs683 anaplastic oligodendroglioma (Lefranc et al., 2013) and human MCF-7 breast cancer (Frolova et al., 2013)."}, "[2]": {"test_system": "panel of cancer cell lines (A549, SKMEL-28, MCF-7, U373, Hs683)", "test": "MTT antiproliferative assay, panel of five cancer cell lines", "type": "cell-based, human", "settings": "for GI50: mean over five cell lines, 72 h treatment, MTT assay, read-out: GI50 in vitro values, Mean + SEM", "experimental": "as §2, §3"}, "[3]": {"test_system": "U373 cells", "test": "Trypan blue viability assay, U373", "type": "cell-based, human", "settings": "72 h treatment", "experimental": "FIG. 9. Viability of U373 cells by trypan blue staining. U373 cells were treated for 72 h with 1 or 13 and stained with trypan blue. The experiment was conducted once in triplicate. After having taken pictures, cells were fixed with ice-cold methanol and again stained with trypan blue as internal positive control.\nTo confirm the results obtained in the videomicroscopy experiments, trypan blue assay was employed to detect necrotic and late apoptotic cells that had lost their plasma membrane integrity (FIG. 9). […] These observations support the results of the MTT assay and provide an explanation for the effectiveness of the C12-Wittig derivatives against cells, which display resistance to apoptosis induction. In contrast, at the concentrations necessary to induce cancer cell death 1 behaves as a toxic fixative compound of little promise as a potential drug."}, "[4]": {"test_system": "uterine sarcoma MES-SA cells", "test": "MTT antiproliferative assay, MES-SA", "type": "cell-based, human", "settings": "48 h treatment, relative to DMSO control, read-out: GI50 in vitro values, MES-SA", "experimental": "as §1\n(§4) Antiproliferative properties of the synthesized compounds were evaluated by the MTT assay. All compounds were dissolved in DMSO at a concentration of either 100 μM or 50 μM prior to cell treatment. The cells were trypsinized and seeded at various cell concentrations depending on the cell type. […]"}, "[5]": {"test_system": "MDR uterine sarcoma cell line MES-SA/Dx5", "test": "MTT antiproliferative assay, MDR MES-SA/Dx5", "type": "cell-based, human", "experimental": "as §1, §2\nSelection of the MES-SA/D×5 cell line was done according to Harker et al. (Harker & Sikic, 1985). The cells were split and allowed to adhere overnight. The next day cells were initially exposed to doxorubicin (DOX) at the concentration of 100 nM, which represented the GI50 concentration. The cells were maintained at this DOX concentration until their growth rate reached that of the untreated cells. The DOX concentration was then increased in two-fold increments following the same growth criteria at each concentration to a final DOX concentration of 500 nM. Each new DOX concentration required approximately 2 passages to reach the growth rate of the untreated cells.\nOften, tumors initially respond to chemotherapy but eventually become refractory to the continuing treatment. Such acquired resistance commonly occurs through the development of a multi-drug resistant phenotype (MDR) (Gottesman et al., 2002 and Saraswathy & Gong, 2013) affecting many common chemotherapeutic agents, including the vinca alkaloids (Chen et al., 2000) and taxanes (Geney et al., 2002). In addition, the development of apoptosis resistance and MDR mechanisms is often related and concurrent (Ruefli et al., 2002 and Johnstone et al., 1999), and thus it was of interest to evaluate 5 against MDR cells. Towards this end, the MDR uterine sarcoma cell line MES-SA/D×5, established by growing the parent uterine sarcoma MES-SA in the presence of increasing concentrations of doxorubicin and resistant to multiple functionally and structurally unrelated molecules (Harker & Sikic, 1985), was utilized."}, "[6]": {"test_system": "U87 glioblastoma cell cultures", "test": "MTT growth curves, U87", "type": "cell-based, human", "settings": "apoptosis-resistant U87 GBM; concentrations up to 100 μM", "experimental": "as §1, §4"}, "[7]": {"test_system": "HeLa cells", "test": "Morphological changes, HeLa", "type": "cell-based, human", "settings": "P3 50 μM, 1 hour", "experimental": "(§5) FIGS. 12A-B Morphological changes (20×) in HeLa cells (FIG. 12Aa-d) and HSC3 cells (FIG. 12Ba-d) with no treatment (a) or treated with Polygodial 80 μM (b), P10 4 μM (c), and P3 50 μM (d) for 1 hour. Differences in morphological changes between treatments indicate potentially unique mechanisms-of-action between polygodial and P10 (isomer), and P3 (novel analog)."}, "[8]": {"test_system": "HSC3 cells", "test": "Morphological changes, HSC3", "type": "cell-based, human", "settings": "P3 50 μM, 1 hour", "experimental": "as §5"}},
  "note": "Read-outs that look alike come from different tables or passages of the source.",
  "data": [
    {"smiles": "CC1(C)CCC[C@]2(C)[C@@H](C=O)C(C=O)=CC[C@@H]12", "note": "[Compound 1, Polygodial]", "values": [
      {"measurement": "GI50", "setting": "[1]; Homo sapiens, SK-MEL-28, 72 h treatment", "value": 65, "unit": "µM"},
      {"measurement": "antiproliferative activity in the cancer cell panel", "setting": "[2]; 72-hour treatment", "value": "ineffective"},
      {"measurement": "GI50", "setting": "[2]; Homo sapiens", "value": "> 85", "unit": "µM"},
      {"measurement": "viability by trypan blue staining", "setting": "[3]", "value": "all blue-stained before methanol fixation"}
    ]},
    {"smiles": "COC(=O)/C=C/C1=CC[C@H]2C(C)(C)CCC[C@]2(C)[C@H]1C=O", "note": "[Compound 5]", "values": [
      {"measurement": "GI50", "setting": "[1]; 72 h treatment", "value": 27, "unit": "µM"},
      {"measurement": "resistant populations in growth curves", "setting": "[2]; all 5 cultures, concentrations just slightly exceeding GI50, close to 0% cell viability", "value": "absence of resistant populations"},
      {"measurement": "GI50", "setting": "[2]", "value": "20 ± 3", "unit": "µM"},
      {"measurement": "GI50", "setting": "[4]", "value": 40, "unit": "µM"},
      {"measurement": "change of potency against MES-SA/Dx5 MDR cell line as compared with parent MES-SA cells", "setting": "[5]; 48 h MTT", "value": "little variation in the sensitivities of the two cell lines"},
      {"measurement": "GI50", "setting": "[5]; 48 h treatment, MTT assay, relative to DMSO control, read-out: GI50 in vitro values, MES-SA/Dx5", "value": 45, "unit": "µM"},
      {"measurement": "effect on proliferation/viability of all cells, U87", "setting": "[6]", "value": "growth inhibitory properties against most of the cells"},
      {"measurement": "morphological changes, HeLa", "setting": "[7]", "value": "apoptotic figures"},
      {"measurement": "morphological changes, HSC3", "setting": "[8]", "value": "apoptotic figures"}
    ]}
  ]
}
